Source: publication PMC6906348 (Therapeutic Advances in Medical Oncology, 2019)

Tested on: patients with advanced HCC
Experiment: Safety: adverse events
Type: in vivo, human
Details: for Abdominal pain (AE regardless of study drug relationship) / Acute kidney injury (AE regardless of study drug relationship) / Anemia (AE regardless of study drug relationship) / Ascites (AE regardless of study drug relationship) / Blood bilirubin increased (AE regardless of study drug relationship) / Blood creatinine increased (AE regardless of study drug relationship) / Constipation (AE regardless of study drug relationship) / Decreased appetite (AE regardless of study drug relationship) / Diarrhea (AE regardless of study drug relationship) / Fatigue (AE regardless of study drug relationship) / Hyperbilirubinemia (AE regardless of study drug relationship) / Hypoalbuminemia (AE regardless of study drug relationship) / Insomnia (AE regardless of study drug relationship) / Leukopenia (AE regardless of study drug relationship) / Nausea (AE regardless of study drug relationship) / Number of patients with at least one event (AE regardless of study drug relationship) / Peripheral edema (AE regardless of study drug relationship) / Platelet count decreased (AE regardless of study drug relationship) / Pyrexia (AE regardless of study drug relationship) / Vomiting (AE regardless of study drug relationship) / Weight decreased (AE regardless of study drug relationship) / ALT increased (AE regardless of study drug relationship) / AST increased (AE regardless of study drug relationship): patients n (%)
[1] = 600 mg capsule BID n = 27, All grades
[2] = 600 mg capsule BID n = 27, Grades 3/4
[3] = All patients n = 38, All grades
[4] = All patients n = 38, Grades 3/4
[5] = all patients (n = 38), all grades

## CNC(=O)c1ccc(-c2cnc3ncc(Cc4ccc5ncccc5c4)n3n2)cc1F [capmatinib]
[1]
  Abdominal pain (AE regardless of study drug relationship): 3 (11)
  Acute kidney injury (AE regardless of study drug relationship): 2 (7)
  Anemia (AE regardless of study drug relationship): 5 (19)
  Ascites (AE regardless of study drug relationship): 4 (15)
  Blood bilirubin increased (AE regardless of study drug relationship): 7 (26)
  Blood creatinine increased (AE regardless of study drug relationship): 7 (26)
  Constipation (AE regardless of study drug relationship): 6 (22)
  Decreased appetite (AE regardless of study drug relationship): 9 (33)
  Diarrhea (AE regardless of study drug relationship): 8 (30)
  Fatigue (AE regardless of study drug relationship): 6 (22)
  Hyperbilirubinemia (AE regardless of study drug relationship): 4 (15)
  Hypoalbuminemia (AE regardless of study drug relationship): 6 (22)
  Insomnia (AE regardless of study drug relationship): 5 (19)
  Leukopenia (AE regardless of study drug relationship): 4 (15)
  Nausea (AE regardless of study drug relationship): 9 (33)
  Number of patients with at least one event (AE regardless of study drug relationship): 27 (100)
  Peripheral edema (AE regardless of study drug relationship): 4 (15)
  Platelet count decreased (AE regardless of study drug relationship): 4 (15)
  Pyrexia (AE regardless of study drug relationship): 5 (19)
  Vomiting (AE regardless of study drug relationship): 9 (33)
  Weight decreased (AE regardless of study drug relationship): 2 (7)
[2]
  ALT increased (AE regardless of study drug relationship): 1 (4)
  AST increased (AE regardless of study drug relationship): 8 (30)
  Abdominal pain (AE regardless of study drug relationship): 1 (4)
  Acute kidney injury (AE regardless of study drug relationship): 1 (4)
  Anemia (AE regardless of study drug relationship): 1 (4)
  Ascites (AE regardless of study drug relationship): 1 (4)
  Blood bilirubin increased (AE regardless of study drug relationship): 5 (19)
  Blood creatinine increased (AE regardless of study drug relationship): 1 (4)
  Constipation (AE regardless of study drug relationship): 0
  Decreased appetite (AE regardless of study drug relationship): 1 (4)
  Diarrhea (AE regardless of study drug relationship): 0
  Fatigue (AE regardless of study drug relationship): 0
  Hyperbilirubinemia (AE regardless of study drug relationship): 3 (11)
  Hypoalbuminemia (AE regardless of study drug relationship): 0
  Insomnia (AE regardless of study drug relationship): 0
  Leukopenia (AE regardless of study drug relationship): 0
  Nausea (AE regardless of study drug relationship): 1 (4)
  Number of patients with at least one event (AE regardless of study drug relationship): 19 (70)
  Peripheral edema (AE regardless of study drug relationship): 0
  Platelet count decreased (AE regardless of study drug relationship): 0
  Pyrexia (AE regardless of study drug relationship): 0
  Vomiting (AE regardless of study drug relationship): 1 (4)
  Weight decreased (AE regardless of study drug relationship): 0
7/38 patients
  patients with at least 1 dose reduction due to AEs: 18%
[3]
  ALT increased (AE regardless of study drug relationship): 7 (18)
  AST increased (AE regardless of study drug relationship): 12 (32)
  Abdominal pain (AE regardless of study drug relationship): 5 (13)
  Acute kidney injury (AE regardless of study drug relationship): 4 (11)
  Anemia (AE regardless of study drug relationship): 8 (21)
  Ascites (AE regardless of study drug relationship): 5 (13)
  Blood bilirubin increased (AE regardless of study drug relationship): 9 (24)
  Blood creatinine increased (AE regardless of study drug relationship): 10 (26)
  Constipation (AE regardless of study drug relationship): 9 (24)
  Decreased appetite (AE regardless of study drug relationship): 12 (32)
  Diarrhea (AE regardless of study drug relationship): 13 (34)
  Fatigue (AE regardless of study drug relationship): 10 (26)
  Hyperbilirubinemia (AE regardless of study drug relationship): 4 (11)
  Hypoalbuminemia (AE regardless of study drug relationship): 8 (21)
  Insomnia (AE regardless of study drug relationship): 7 (18)
  Leukopenia (AE regardless of study drug relationship): 4 (11)
  Nausea (AE regardless of study drug relationship): 16 (42)
  Number of patients with at least one event (AE regardless of study drug relationship): 38 (100)
  Peripheral edema (AE regardless of study drug relationship): 6 (16)
  Platelet count decreased (AE regardless of study drug relationship): 4 (11)
  Pyrexia (AE regardless of study drug relationship): 6 (16)
  Vomiting (AE regardless of study drug relationship): 14 (37)
  Weight decreased (AE regardless of study drug relationship): 4 (11)
[4]
  ALT increased (AE regardless of study drug relationship): 2 (5)
  AST increased (AE regardless of study drug relationship): 9 (24)
  Abdominal pain (AE regardless of study drug relationship): 1 (3)
  Acute kidney injury (AE regardless of study drug relationship): 2 (5)
  Anemia (AE regardless of study drug relationship): 3 (8)
  Ascites (AE regardless of study drug relationship): 1 (3)
  Blood bilirubin increased (AE regardless of study drug relationship): 6 (16)
  Blood creatinine increased (AE regardless of study drug relationship): 1 (3)
  Constipation (AE regardless of study drug relationship): 0
  Decreased appetite (AE regardless of study drug relationship): 1 (3)
  Diarrhea (AE regardless of study drug relationship): 1 (3)
  Fatigue (AE regardless of study drug relationship): 0
  Hyperbilirubinemia (AE regardless of study drug relationship): 3 (8)
  Hypoalbuminemia (AE regardless of study drug relationship): 1 (3)
  Insomnia (AE regardless of study drug relationship): 0
  Leukopenia (AE regardless of study drug relationship): 0
  Nausea (AE regardless of study drug relationship): 1 (3)
  Number of patients with at least one event (AE regardless of study drug relationship): 25 (66)
  Peripheral edema (AE regardless of study drug relationship): 0
  Platelet count decreased (AE regardless of study drug relationship): 0
  Pyrexia (AE regardless of study drug relationship): 0
  Vomiting (AE regardless of study drug relationship): 2 (5)
  Weight decreased (AE regardless of study drug relationship): 0
[5]
  diarrhea, AE regardless of causality: 34%
  nausea, AE regardless of causality: 42%
  vomiting, AE regardless of causality: 37%
All patients (n = 38), nine patients
  patients with AEs that led to discontinuation of capmatinib: 24%
Single agent, 600 mg BID capsules and 400 mg BID tablets
  tolerability: tolerable with a manageable safety profile
